Results as given in patent US5053418A, “Antiprotozoal agents” (Burroughs Wellcome Co., priority 1983, dated 1991).

Test system: P.yoelii
Experiment: In vivo effect on P.yoelii in mice (inhibition of parasitaemia)
Details: for inhibition in vivo at 2.5 mg/kg: 2.5 mg/Kg × 7; for inhibition in vivo at 5 mg/kg: 5.0 mg/Kg × 7; for ED50 for naphthoquinone: 5760 min; for inhibition in vivo at 0.5 mg/kg: 0.50 mg/Kg × 7; for inhibition in vivo at 1 mg/kg: 1.0 mg/Kg × 7
Procedure: The naphthoquinone and the pyridinol were each suspended in 0.25% (w/v) celacol in water by milling for 16-24 hours at 26° C. The suspensions were subsequently serially diluted with 0.25% (w/v) celacol in water. At time 0, 0.1 ml of a suspension of 10^7 P.yoelii-parasitised red blood cells/ml of phosphate buffered saline were injected intravenously into 15-20 g mice through a tail vein. Groups of 5 mice per treatment were dosed orally at times 6, 22, 30, 46, 54, 70 and 78 hours with 0.2 ml of the drug suspension. Tail-blood smears were taken at 96 hours, stained with Giemsa and the percentage of red blood cells infected determined and compared to untreated, infected controls. Percent inhibition was correlated with dose to provide ED50 values for each drug alone. In subsequent experiments dilutions of the two drugs, alone and in combination were used, and the percentage inhibition of parasitaemia and ED50 values (of each drug at fixed concentrations of the other) were determined. The results are shown respectively in Tables V and VI. A number of combinations of clopidol (4-pyridinol) and naphthoquinones were assayed and compared with each drug alone for their antimalarial effect against P.yoelii in vivo by the method of Example 4.

[1] = Plasmodium yoelii, po, 96 h, naphthoquinone alone
[2] = naphthoquinone 2.5 + clopidol 1.4 mg/Kg × 7
[3] = naphthoquinone 2.5 + clopidol 4.3 mg/Kg × 7
[4] = naphthoquinone 5.0 + clopidol 1.4 mg/Kg × 7
[5] = naphthoquinone 5.0 + clopidol 4.3 mg/Kg × 7
[6] = naphthoquinone 0.50 + clopidol 1.4 mg/Kg × 7
[7] = naphthoquinone 0.50 + clopidol 4.3 mg/Kg × 7
[8] = naphthoquinone 1.0 + clopidol 1.4 mg/Kg × 7
[9] = naphthoquinone 1.0 + clopidol 4.3 mg/Kg × 7

For `CC1(C)CCC(C2=C(O)C(=O)c3ccccc3C2=O)CC1`, the inhibition in vivo at 2.5 mg/kg [1] was 0%, the inhibition in vivo at 5 mg/kg [1] was 0% and the “% inhibition of parasitaemia (combination)” value (“% inhibition of parasitaemia” for short) [2] was 22%. For the same compound, the “% inhibition of parasitaemia” value [3] was 45%, the “% inhibition of parasitaemia” value [4] was 46% and the “% inhibition of parasitaemia” value [5] was 73%.
`O=C1C(O)=C(C2CCC(C3CCCCC3)CC2)C(=O)c2ccccc21` (stereo not shown) [2-(4-cyclohexylcyclohexyl)-3-hydroxy-1,4-naphthoquinone] showed an inhibition in vivo at 0.019 mg/kg (Plasmodium yoelii, po, 96 h, naphthoquinone alone, 0.019 mg/Kg/dose, 7 doses) of 13%, an inhibition in vivo at 0.037 mg/kg (Plasmodium yoelii, po, 96 h, naphthoquinone alone, 0.037 mg/Kg/dose, 7 doses) of 28% and an inhibition in vivo at 0.075 mg/kg (Plasmodium yoelii, po, 96 h, naphthoquinone alone, 0.075 mg/Kg/dose, 7 doses) of 17%. The inhibition in vivo at 0.15 mg/kg (Plasmodium yoelii, po, 96 h, naphthoquinone alone, 0.15 mg/Kg/dose, 7 doses) was 16%, the inhibition in vivo at 0.3 mg/kg (Plasmodium yoelii, po, 96 h, naphthoquinone alone, 0.30 mg/Kg/dose, 7 doses) was 74% and the inhibition in vivo at 0.6 mg/kg (Plasmodium yoelii, po, 96 h, naphthoquinone alone, 0.60 mg/Kg/dose, 7 doses) was 99%. The ED50 for naphthoquinone (fixed clopidol 0.000 mg/kg/dose (alone)) was 0.224 (0.224 to 0.208) mg/Kg/dose, the ED50 for naphthoquinone (fixed clopidol 0.94 mg/kg/dose) was 0.109 (0.125 to 0.0909) mg/Kg/dose and the ED50 for naphthoquinone (fixed clopidol 1.9 mg/kg/dose) was 0.0762 (0.0975 to 0.0599) mg/Kg/dose. The ED50 for naphthoquinone (fixed clopidol 3.75 mg/kg/dose) was 0.0519 (0.0599 to 0.0450) mg/Kg/dose, the ED50 for naphthoquinone (fixed clopidol 7.5 mg/kg/dose) was 0.0219 (0.0274 to 0.0151) mg/Kg/dose and the ED50 for naphthoquinone (fixed clopidol 15. mg/kg/dose) was 0.0197 (0.0242 to 0.0121) mg/Kg/dose. For the same compound, the “% inhibition of parasitaemia” value (naphthoquinone 0.019 + clopidol 0.94 mg/Kg/dose) was 16%, the “% inhibition of parasitaemia” value (naphthoquinone 0.019 + clopidol 1.9 mg/Kg/dose) was 23% and the “% inhibition of parasitaemia” value (naphthoquinone 0.019 + clopidol 3.7 mg/Kg/dose) was 11%. The “% inhibition of parasitaemia” value (naphthoquinone 0.019 + clopidol 7.5 mg/Kg/dose) was 42%, the “% inhibition of parasitaemia” value (naphthoquinone 0.019 + clopidol 15 mg/Kg/dose) was 48% and the “% inhibition of parasitaemia” value (naphthoquinone 0.037 + clopidol 0.94 mg/Kg/dose) was 20%. The “% inhibition of parasitaemia” value (naphthoquinone 0.037 + clopidol 1.9 mg/Kg/dose) was 23%, the “% inhibition of parasitaemia” value (naphthoquinone 0.037 + clopidol 3.7 mg/Kg/dose) was 32% and the “% inhibition of parasitaemia” value (naphthoquinone 0.037 + clopidol 7.5 mg/Kg/dose) was 73%. For the same compound, the “% inhibition of parasitaemia” value (naphthoquinone 0.037 + clopidol 15 mg/Kg/dose) was 77%, the “% inhibition of parasitaemia” value (naphthoquinone 0.075 + clopidol 0.94 mg/Kg/dose) was 35% and the “% inhibition of parasitaemia” value (naphthoquinone 0.075 + clopidol 1.9 mg/Kg/dose) was 45%. The “% inhibition of parasitaemia” value (naphthoquinone 0.075 + clopidol 3.7 mg/Kg/dose) was 69%, the “% inhibition of parasitaemia” value (naphthoquinone 0.075 + clopidol 7.5 mg/Kg/dose) was 86% and the “% inhibition of parasitaemia” value (naphthoquinone 0.15 + clopidol 0.94 mg/Kg/dose) was 62%. For the same compound, the “% inhibition of parasitaemia” value (naphthoquinone 0.15 + clopidol 1.9 mg/Kg/dose) was 80%, the “% inhibition of parasitaemia” value (naphthoquinone 0.15 + clopidol 3.7 mg/Kg/dose) was 92% and the “% inhibition of parasitaemia” value (naphthoquinone 0.30 + clopidol 0.94 mg/Kg/dose) was 96%. The “% inhibition of parasitaemia” value (naphthoquinone 0.30 + clopidol 1.9 mg/Kg/dose) was 98%.
In the case of `CC(C)(C)C1CCC(C2=C(O)C(=O)c3ccccc3C2=O)CC1` (stereo not shown) [drawing 25], the inhibition in vivo at 0.6 mg/kg (Plasmodium yoelii, po, 96 h, naphthoquinone alone, 0.6 mg/Kg × 7) is reported as 24%, the inhibition in vivo at 0.9 mg/kg (Plasmodium yoelii, po, 96 h, naphthoquinone alone, 0.9 mg/Kg × 7) is reported as 35% and the “% inhibition of parasitaemia” value (naphthoquinone 0.6 + clopidol 2.5 mg/Kg × 7) is reported as 74%. For the same compound, the “% inhibition of parasitaemia” value (naphthoquinone 0.6 + clopidol 5.0 mg/Kg × 7) was 94%, the “% inhibition of parasitaemia” value (naphthoquinone 0.9 + clopidol 2.5 mg/Kg × 7) was 96% and the “% inhibition of parasitaemia” value (naphthoquinone 0.9 + clopidol 5.0 mg/Kg × 7) was 97%.
With `CC(C)(C)OC1CCC(C2=C(O)C(=O)c3ccccc3C2=O)CC1` (stereo not shown) the inhibition in vivo at 0.13 mg/kg (Plasmodium yoelii, po, 96 h, naphthoquinone alone, 0.13 mg/Kg × 7) was 1%, the inhibition in vivo at 0.25 mg/kg (Plasmodium yoelii, po, 96 h, naphthoquinone alone, 0.25 mg/Kg × 7) was 5% and the “% inhibition of parasitaemia” value (naphthoquinone 0.13 + clopidol 4.3 mg/Kg × 7) was 84%. The “% inhibition of parasitaemia” value (naphthoquinone 0.13 + clopidol 13 mg/Kg × 7) was 31%, the “% inhibition of parasitaemia” value (naphthoquinone 0.25 + clopidol 4.3 mg/Kg × 7) was 97% and the “% inhibition of parasitaemia” value (naphthoquinone 0.25 + clopidol 13 mg/Kg × 7) was 80%.
For `CC(C)(C)C1CCC(CC2=C(O)C(=O)c3ccccc3C2=O)CC1` (stereo not shown), the inhibition in vivo at 0.5 mg/kg [1] was 10%, the inhibition in vivo at 1 mg/kg [1] was 19% and the “% inhibition of parasitaemia” value [6] was 17%. The “% inhibition of parasitaemia” value [7] was 61%, the “% inhibition of parasitaemia” value [8] was 52% and the “% inhibition of parasitaemia” value [9] was 93%.
For `CC(=O)OC1=C(C2CCCCC2)C(=O)c2ccccc2C1=O`, the inhibition in vivo at 2.5 mg/kg [1] was 2%, the inhibition in vivo at 5 mg/kg [1] was 3% and the “% inhibition of parasitaemia” value [2] was 3%. The “% inhibition of parasitaemia” value [3] was 50%, the “% inhibition of parasitaemia” value [4] was 22% and the “% inhibition of parasitaemia” value [5] was 86%.
`O=C1C(O)=C(C2CCC(c3ccc(Cl)cc3)CC2)C(=O)c2ccccc21` (stereo not shown) was tested, and the inhibition in vivo at 0.01 mg/kg (Plasmodium yoelii, po, 96 h, naphthoquinone alone, 0.010 mg/Kg × 7) was 5%, the inhibition in vivo at 0.02 mg/kg (Plasmodium yoelii, po, 96 h, naphthoquinone alone, 0.020 mg/Kg × 7) was 12% and the “% inhibition of parasitaemia” value (naphthoquinone 0.010 + clopidol 1.4 mg/Kg × 7) was 29%. For the same compound, the “% inhibition of parasitaemia” value (naphthoquinone 0.010 + clopidol 4.3 mg/Kg × 7) was 68%, the “% inhibition of parasitaemia” value (naphthoquinone 0.020 + clopidol 1.4 mg/Kg × 7) was 55% and the “% inhibition of parasitaemia” value (naphthoquinone 0.020 + clopidol 4.3 mg/Kg × 7) was 90%.
`CCC1(CC)CCC(C2=C(O)C(=O)c3ccccc3C2=O)CC1` was tested, and the inhibition in vivo at 0.5 mg/kg [1] was 5%, the inhibition in vivo at 1 mg/kg [1] was 4% and the “% inhibition of parasitaemia” value [6] was 14%. For the same compound, the “% inhibition of parasitaemia” value [7] was 54%, the “% inhibition of parasitaemia” value [8] was 68% and the “% inhibition of parasitaemia” value [9] was 75%.
With `O=C1C(O)=C(C2CCC(c3ccccc3)CC2)C(=O)c2ccccc21` (stereo not shown) the inhibition in vivo at 0.04 mg/kg (Plasmodium yoelii, po, 96 h, naphthoquinone alone, 0.040 mg/Kg × 7) was 0%, the inhibition in vivo at 0.05 mg/kg (Plasmodium yoelii, po, 96 h, naphthoquinone alone, 0.050 mg/Kg × 7) was 0% and the “% inhibition of parasitaemia” value (naphthoquinone 0.040 + clopidol 1.9 mg/Kg × 7) was 23%. The “% inhibition of parasitaemia” value (naphthoquinone 0.040 + clopidol 3.75 mg/Kg × 7) was 39%, the “% inhibition of parasitaemia” value (naphthoquinone 0.050 + clopidol 1.9 mg/Kg × 7) was 34% and the “% inhibition of parasitaemia” value (naphthoquinone 0.050 + clopidol 3.75 mg/Kg × 7) was 73%.
`O=C1C(O)=C(C2CCC(C3CCCCC3)CC2)C(=O)c2ccccc21` (stereo not shown) [drawing 17, 2-(4-cyclohexylcyclohexyl)-3-hydroxy-1,4-naphthoquinone] was tested, and the inhibition in vivo at 0.075 mg/kg (Plasmodium yoelii, po, 96 h, naphthoquinone alone, 0.075 mg/Kg × 7) was 17%, the inhibition in vivo at 0.15 mg/kg (Plasmodium yoelii, po, 96 h, naphthoquinone alone, 0.15 mg/Kg × 7) was 16% and the “% inhibition of parasitaemia” value (naphthoquinone 0.075 + clopidol 1.9 mg/Kg × 7) was 45%. For the same compound, the “% inhibition of parasitaemia” value (naphthoquinone 0.075 + clopidol 3.75 mg/Kg × 7) was 69%, the “% inhibition of parasitaemia” value (naphthoquinone 0.15 + clopidol 1.9 mg/Kg × 7) was 80% and the “% inhibition of parasitaemia” value (naphthoquinone 0.15 + clopidol 3.75 mg/Kg × 7) was 92%.
For `O=C1C(O)=C(C2CCCCC2)C(=O)c2ccccc21`, the inhibition in vivo at 1.5 mg/kg (Plasmodium yoelii, po, 96 h, naphthoquinone alone, 1.5 mg/Kg × 7) was 1%, the inhibition in vivo at 3 mg/kg (Plasmodium yoelii, po, 96 h, naphthoquinone alone, 3.0 mg/Kg × 7) was 15% and the “% inhibition of parasitaemia” value (naphthoquinone 1.5 + clopidol 1.9 mg/Kg × 7) was 47%. The “% inhibition of parasitaemia” value (naphthoquinone 1.5 + clopidol 3.75 mg/Kg × 7) was 76%, the “% inhibition of parasitaemia” value (naphthoquinone 3.0 + clopidol 1.9 mg/Kg × 7) was 64% and the “% inhibition of parasitaemia” value (naphthoquinone 3.0 + clopidol 3.75 mg/Kg × 7) was 97%.
